#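 Where inhibition never reached the appropriate level, the endpoint shown equals the highest concentration tested. Otherwise, values were interpolated linearly from a five-concentration, 48-hour dose response in 96-well plates. GI50 = concentration required for 50% inhibition of growth. TGI: concentration producing complete growth inhibition.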
# Experiments:
# Experiment in all cases: NCI-60 cell line screen, 48 h
# COLO 205 colon = tested on: COLO 205 colon
# HT29 colon = tested on: HT29 colon
# UACC-257 melanoma = tested on: UACC-257 melanoma
# SK-OV-3 ovarian = tested on: SK-OV-3 ovarian
# EKVX NSCLC = tested on: EKVX NSCLC
# MOLT-4 leukemia = tested on: MOLT-4 leukemia
# NCI-H522 lung = tested on: NCI-H522 lung
# A549 NSCLC = tested on: A549 NSCLC
# SK-MEL-28 melanoma = tested on: SK-MEL-28 melanoma
# MALME-3M melanoma = tested on: MALME-3M melanoma
# OVCAR-8 ovarian = tested on: OVCAR-8 ovarian
# 786-0 renal = tested on: 786-0 renal
# DLD-1 colon = tested on: DLD-1 colon
# SNB-19 CNS = tested on: SNB-19 CNS
# CCRF-CEM leukemia = tested on: CCRF-CEM leukemia
# NCI-H23 lung = tested on: NCI-H23 lung
# HOP-62 NSCLC = tested on: HOP-62 NSCLC
# CAKI-1 renal = tested on: CAKI-1 renal
# KM20L2 colon = tested on: KM20L2 colon
# A498 renal = tested on: A498 renal
# OVCAR-3 ovarian = tested on: OVCAR-3 ovarian
# IGROV1 ovarian = tested on: IGROV1 ovarian
# ACHN renal = tested on: ACHN renal
# HCC-2998 colon = tested on: HCC-2998 colon
# NCI-H460 lung = tested on: NCI-H460 lung
# RXF 393 renal = tested on: RXF 393 renal
# UACC-62 melanoma = tested on: UACC-62 melanoma
# KM12 colon = tested on: KM12 colon
# M14 melanoma = tested on: M14 melanoma
# K-562 leukemia = tested on: K-562 leukemia
# M19-MEL melanoma = tested on: M19-MEL melanoma
# SF-295 CNS = tested on: SF-295 CNS
# OVCAR-4 ovarian = tested on: OVCAR-4 ovarian
# SF-268 CNS = tested on: SF-268 CNS
# SW-620 colon = tested on: SW-620 colon
# SK-MEL-2 melanoma = tested on: SK-MEL-2 melanoma
# UO-31 renal = tested on: UO-31 renal
# DMS 114 small cell lung = tested on: DMS 114 small cell lung
# RPMI-8226 leukemia = tested on: RPMI-8226 leukemia
# OVCAR-5 ovarian = tested on: OVCAR-5 ovarian
# SN12C renal = tested on: SN12C renal
# SK-MEL-5 melanoma = tested on: SK-MEL-5 melanoma
# TK-10 renal = tested on: TK-10 renal
# SR leukemia = tested on: SR leukemia
# HL-60(TB) leukemia = tested on: HL-60(TB) leukemia
# SF-539 CNS = tested on: SF-539 CNS
# HCT-116 colon = tested on: HCT-116 colon
# PC-3 prostate = tested on: PC-3 prostate
# U251 CNS = tested on: U251 CNS
# NCI-H226 lung = tested on: NCI-H226 lung
# LOX IMVI melanoma = tested on: LOX IMVI melanoma
# MDA-MB-231 breast = tested on: MDA-MB-231 breast
# DU-145 prostate = tested on: DU-145 prostate
# T-47D breast = tested on: T-47D breast
# HOP-92 NSCLC = tested on: HOP-92 NSCLC
# MDA-MB-435 = tested on: MDA-MB-435
# MCF7 breast = tested on: MCF7 breast
# HS 578T breast = tested on: HS 578T breast
# SNB-75 CNS = tested on: SNB-75 CNS
# BT-549 breast = tested on: BT-549 breast
# NCI/ADR-RES ovarian = tested on: NCI/ADR-RES ovarian
# HCT-15 colon = tested on: HCT-15 colon
# MDA-N = tested on: MDA-N
compound,measurement,setting,value
NC1(CCCCCCCCCCC(=O)O)CNCCNCCNCCNC1,TGI,COLO 205 colon,> 100 µM
same,TGI,HT29 colon,> 100 µM
same,TGI,UACC-257 melanoma,> 100 µM
same,TGI,SK-OV-3 ovarian,> 100 µM
same,TGI,EKVX NSCLC,> 100 µM
same,TGI,MOLT-4 leukemia,> 100 µM
same,TGI,NCI-H522 lung,> 100 µM
same,TGI,A549 NSCLC,> 100 µM
same,TGI,SK-MEL-28 melanoma,> 100 µM
same,TGI,MALME-3M melanoma,> 100 µM
same,TGI,OVCAR-8 ovarian,> 100 µM
same,TGI,786-0 renal,> 100 µM
same,TGI,DLD-1 colon,> 100 µM
same,TGI,SNB-19 CNS,77.6 µM
same,TGI,CCRF-CEM leukemia,> 100000 nM
same,TGI,NCI-H23 lung,> 100 µM
same,TGI,HOP-62 NSCLC,91.6 µM
same,TGI,CAKI-1 renal,> 100 µM
same,TGI,KM20L2 colon,> 100 µM
same,TGI,A498 renal,46.7 µM
same,TGI,OVCAR-3 ovarian,> 100000 nM
same,TGI,IGROV1 ovarian,> 100 µM
same,TGI,ACHN renal,> 100 µM
same,TGI,HCC-2998 colon,46 µM
same,TGI,NCI-H460 lung,86.4 µM
same,TGI,RXF 393 renal,> 100 µM
same,TGI,UACC-62 melanoma,> 100 µM
same,TGI,KM12 colon,> 100000 nM
same,TGI,M14 melanoma,> 100 µM
same,TGI,K-562 leukemia,> 100 µM
same,TGI,M19-MEL melanoma,> 100 µM
same,TGI,SF-295 CNS,> 100000 nM
same,TGI,OVCAR-4 ovarian,> 100 µM
same,TGI,SF-268 CNS,> 100 µM
same,TGI,SW-620 colon,> 100 µM
same,TGI,SK-MEL-2 melanoma,> 100 µM
same,TGI,UO-31 renal,> 100 µM
same,TGI,DMS 114 small cell lung,> 100 µM
same,TGI,RPMI-8226 leukemia,> 100 µM
same,TGI,OVCAR-5 ovarian,45.6 µM
same,TGI,SN12C renal,> 100 µM
same,TGI,SK-MEL-5 melanoma,> 100 µM
same,TGI,TK-10 renal,> 100 µM
same,TGI,SR leukemia,67.2 µM
same,TGI,HL-60(TB) leukemia,47.5 µM
same,TGI,SF-539 CNS,> 100000 nM
same,TGI,HCT-116 colon,81.2 µM
CCC[C@H](C)[C@H]1NC(=O)[C@@H](NC(=O)[C@@H](CC(C)C)N(C)C(=O)C2CCCN2C(=O)[C@H](C)O)[C@@H](C)OC(=O)[C@H](CC(C)C)N(C)C(=O)[C@@H]2CCCN2C(=O)[C@H](CC(C)C)NC(=O)[C@@H](C)C(=O)[C@H](C(C)C)OC(=O)C[C@@H]1O (stereo partly drawn),TGI,PC-3 prostate,16.9 nM
same,TGI,COLO 205 colon,< 0.0025 µM
same,TGI,U251 CNS,< 0.0025 µM
same,TGI,HT29 colon,0.0102 µM
same,TGI,UACC-257 melanoma,0.0205 µM
same,TGI,SK-OV-3 ovarian,0.14 µM
same,TGI,EKVX NSCLC,0.339 µM
same,TGI,MOLT-4 leukemia,1.58 µM
same,TGI,NCI-H522 lung,0.00609 µM
same,TGI,A549 NSCLC,0.131 µM
same,TGI,SK-MEL-28 melanoma,< 0.0025 µM
same,TGI,MALME-3M melanoma,< 0.0025 µM
same,TGI,OVCAR-8 ovarian,0.0484 µM
same,TGI,786-0 renal,0.0157 µM
same,TGI,NCI-H226 lung,62.2 nM
same,TGI,LOX IMVI melanoma,3.09 nM
same,TGI,MDA-MB-231 breast,8.55 nM
same,TGI,SNB-19 CNS,0.06 µM
same,TGI,CCRF-CEM leukemia,141 nM
same,TGI,NCI-H23 lung,0.00447 µM
same,TGI,HOP-62 NSCLC,0.00842 µM
same,TGI,CAKI-1 renal,1.54 µM
same,TGI,A498 renal,0.0376 µM
same,TGI,OVCAR-3 ovarian,11.7 nM
same,TGI,IGROV1 ovarian,0.0256 µM
same,TGI,ACHN renal,0.0689 µM
same,TGI,DU-145 prostate,14.3 nM
same,TGI,HCC-2998 colon,0.00551 µM
same,TGI,T-47D breast,250 nM
same,TGI,NCI-H460 lung,0.0289 µM
same,TGI,RXF 393 renal,0.016 µM
same,TGI,HOP-92 NSCLC,9.3 nM
same,TGI,UACC-62 melanoma,0.0027 µM
same,TGI,KM12 colon,1270 nM
same,TGI,M14 melanoma,0.0848 µM
same,TGI,K-562 leukemia,3.26 µM
same,TGI,SF-295 CNS,53.6 nM
same,TGI,MDA-MB-435,5.19 nM
same,TGI,MCF7 breast,250 nM
same,TGI,OVCAR-4 ovarian,0.0117 µM
same,TGI,HS 578T breast,1040 nM
same,TGI,SF-268 CNS,0.0303 µM
same,TGI,SW-620 colon,0.00524 µM
same,TGI,SK-MEL-2 melanoma,0.00468 µM
same,TGI,SNB-75 CNS,0.0246 µM
same,TGI,UO-31 renal,0.128 µM
same,TGI,BT-549 breast,25 nM
same,TGI,NCI/ADR-RES ovarian,2620 nM
same,TGI,RPMI-8226 leukemia,0.0768 µM
same,TGI,OVCAR-5 ovarian,0.0346 µM
same,TGI,SK-MEL-5 melanoma,0.00381 µM
same,TGI,TK-10 renal,0.0946 µM
same,TGI,SR leukemia,0.0422 µM
same,TGI,HCT-15 colon,1440 nM
same,TGI,HL-60(TB) leukemia,0.108 µM
same,TGI,SF-539 CNS,10.2 nM
same,TGI,MDA-N,20.5 nM
same,TGI,HCT-116 colon,0.00356 µM
O=C(/C=C(\[O-])c1ccccc1)CCCCCCC(=O)/C=C(\[O-])c1ccccc1.O=C(/C=C(\[O-])c1ccccc1)CCCCCCC(=O)/C=C(\[O-])c1ccccc1.O=C(/C=C(\[O-])c1ccccc1)CCCCCCC(=O)/C=C(\[O-])c1ccccc1.[La+3].[La+3],GI50,COLO 205 colon,> 50 µM
same,TGI,COLO 205 colon,> 50 µM
same,GI50,U251 CNS,> 50 µM
same,TGI,U251 CNS,> 50 µM
same,GI50,HT29 colon,> 50 µM
same,TGI,HT29 colon,> 50 µM
same,GI50,UACC-257 melanoma,> 50 µM
same,TGI,UACC-257 melanoma,> 50 µM
same,GI50,SK-OV-3 ovarian,> 50 µM
same,TGI,SK-OV-3 ovarian,> 50 µM
same,GI50,EKVX NSCLC,> 50 µM
same,TGI,EKVX NSCLC,> 50 µM
same,GI50,MOLT-4 leukemia,> 50 µM
same,TGI,MOLT-4 leukemia,> 50 µM
same,GI50,NCI-H522 lung,> 50 µM
same,TGI,NCI-H522 lung,> 50 µM
same,GI50,A549 NSCLC,> 50 µM
same,TGI,A549 NSCLC,> 50 µM
same,GI50,SK-MEL-28 melanoma,> 50 µM
same,TGI,SK-MEL-28 melanoma,> 50 µM
same,GI50,MALME-3M melanoma,> 50 µM
same,TGI,MALME-3M melanoma,> 50 µM
same,GI50,OVCAR-8 ovarian,> 50 µM
same,TGI,OVCAR-8 ovarian,> 50 µM
same,GI50,786-0 renal,> 50 µM
same,TGI,786-0 renal,> 50 µM
same,GI50,NCI-H226 lung,> 50 µM
same,TGI,NCI-H226 lung,> 50000 nM
same,GI50,LOX IMVI melanoma,> 50 µM
same,TGI,LOX IMVI melanoma,> 50000 nM
same,GI50,SNB-19 CNS,> 50 µM
same,TGI,SNB-19 CNS,> 50 µM
same,GI50,NCI-H23 lung,> 50 µM
same,TGI,NCI-H23 lung,> 50 µM
same,GI50,HOP-62 NSCLC,> 50 µM
same,TGI,HOP-62 NSCLC,> 50 µM
same,GI50,CAKI-1 renal,> 50 µM
same,TGI,CAKI-1 renal,> 50 µM
same,GI50,KM20L2 colon,> 50 µM
same,TGI,KM20L2 colon,> 50 µM
same,GI50,A498 renal,> 50 µM
same,TGI,A498 renal,> 50 µM
same,GI50,IGROV1 ovarian,> 50 µM
same,TGI,IGROV1 ovarian,> 50 µM
same,GI50,ACHN renal,> 50 µM
same,TGI,ACHN renal,> 50 µM
same,GI50,HCC-2998 colon,> 50 µM
same,TGI,HCC-2998 colon,> 50 µM
same,GI50,NCI-H460 lung,> 50 µM
same,TGI,NCI-H460 lung,> 50 µM
same,GI50,RXF 393 renal,> 50 µM
same,TGI,RXF 393 renal,> 50 µM
same,GI50,HOP-92 NSCLC,> 50 µM
same,TGI,HOP-92 NSCLC,> 50000 nM
same,GI50,UACC-62 melanoma,> 50 µM
same,TGI,UACC-62 melanoma,> 50 µM
same,GI50,M14 melanoma,> 50 µM
same,TGI,M14 melanoma,> 50 µM
same,GI50,K-562 leukemia,> 50 µM
same,TGI,K-562 leukemia,> 50 µM
same,GI50,OVCAR-4 ovarian,> 50 µM
same,TGI,OVCAR-4 ovarian,> 50 µM
same,GI50,SF-268 CNS,> 50 µM
same,TGI,SF-268 CNS,> 50 µM
same,GI50,SW-620 colon,> 50 µM
same,TGI,SW-620 colon,> 50 µM
same,GI50,SK-MEL-2 melanoma,> 50 µM
same,TGI,SK-MEL-2 melanoma,> 50 µM
same,GI50,SNB-75 CNS,9.33 µM
same,TGI,SNB-75 CNS,48.2 µM
same,GI50,UO-31 renal,> 50 µM
same,TGI,UO-31 renal,> 50 µM
same,GI50,RPMI-8226 leukemia,> 50 µM
same,TGI,RPMI-8226 leukemia,> 50 µM
same,GI50,OVCAR-5 ovarian,> 50 µM
same,TGI,OVCAR-5 ovarian,> 50 µM
same,GI50,SN12C renal,> 50 µM
same,TGI,SN12C renal,> 50 µM
same,GI50,SK-MEL-5 melanoma,> 50 µM
same,TGI,SK-MEL-5 melanoma,> 50 µM
same,GI50,TK-10 renal,> 50 µM
same,TGI,TK-10 renal,> 50 µM
same,GI50,HCT-15 colon,> 50 µM
same,TGI,HCT-15 colon,> 50000 nM
same,GI50,HL-60(TB) leukemia,> 50 µM
same,TGI,HL-60(TB) leukemia,> 50 µM
same,GI50,HCT-116 colon,> 50 µM
same,TGI,HCT-116 colon,> 50 µM
